“And” between values parts separate entries of the source, which are not always exact repeats. Identical values can stand only once.
Test system: 454973-116-R2-J3-PDC complex spheroid viability
Assay: Anticancer human tumor 454973-116-R2-J3-PDC patient-derived pancreatic carcinoma cell line growth inhibition [POLQ]
Details: for viability, T/C: stronger effect = lower value; for IC50: curve of compound
Method: Multicellular complex tumor spheroid response to Polymerase (POL) inhibitors (novobiocin, ART-558, RP6685) in combination with a variety of drugs and investigational agents in selected tumor cell lines
The POL inhibitors (novobiocin, ART-558, and RP6685) were evaluated both individually and in combination with standard of care and investigational anticancer small molecules within a complex spheroid model of solid tumors. . Complex spheroids include a stromal component modeled by human endothelial cells (HUVEC) and fibroblasts modeled by human mesenchymal stem cells (MSCs). The concentration ranges selected for each drug and investigational agent were based upon clinically achievable concentrations if the clinical Cmax of the agent was known.
Compounds. The drugs and investigational agents: novobiocin (NSC847541), ART-558 (NSC835418), RP-6685 (NSC848927), peposertib (NSC802822), ceralasertib (NSC780249), elimusertib (NSC800525), camonsertib (NSC841442), AZD-1390 (NSC803789), olaparib (NSC753686), talazoparib (NSC767125), rucaparib (NSC756644), sotorasib (NSC818433), MRTX-1133 (NSC836407), SN-38 (NSC673596), topotecan (NSC609699), epotoside (NSC141540), doxorubicin (NSC123127), gemcitabine (NSC613327), 5-fluorouracil (NSC19893), paclitaxel (NSC125973), vemurafenib (NSC761431), MSA-2 (NSC828583), SN-011 (NSC837082), adavosertib (NSC754352), prexasertib (NSC758257), carboplatin (NSC241240) and oxaliplatin (NSC266046), were obtained from the National Cancer Institute (NCI) Developmental Therapeutics Program Chemical Repository (21). The FDA-approved anticancer drug set is available from the Developmental Therapeutics Program at https://dtp.cancer.gov/organization/dscb/obtaining/. […] The stock solutions were prepared in dimethyl sulfoxide (DMSO, Sigma-Aldrich, St. Louis, MO, cat. D2650), except for the platinum compounds which were prepared in saline (Quality Biological, Gaithersburg, MD, cat. 114-055-101), at 800-fold the tested concentration and stored at -70 degrees C prior to their use. All drugs and investigational agents were tested over a range starting from a high concentration at or near the clinical Cmax and decreasing in half-log increments. If the clinical Cmax for an agent had not been determined, the highest concentration tested was 10 microM, except for SN-38, which was tested at a high concentration of 1 microM.
Cell Culture. All cells were maintained in an incubator at 37 degrees C and 5% CO2 with 95% humidity. The PDC lines were cultured according to standard operating procedures established by the NCI PDMR (https://pdmr.cancer.gov). Table 3 of the manuscript, lists the cell lines along with the number of the three cell types plated to form the mct-spheroids and media for tumor cell growth. After thawing, all PDC lines, except 997537-175-T-J1-PDC and 415267-285-R-J2-PDC, were cultured in Matrigel-coated flasks prepared with a working solution of 1X Ham's F-12 nutrient mix, without supplementation (Thermo Fisher Scientific, cat. 11765054), 100 U/mL penicillin-streptomycin (Thermo Fisher Scientific, cat. 15140122), and 2.5% Matrigel (Corning Inc., Corning, NY, cat. 354248) for the first three passages. The two PDC lines 997537-175-T-J1-PDC and 415267-285-R-J2-PDC were cultured on uncoated flasks. The 857933-349-R-J2-PDC line was cultured in 6C/Colon 1B media containing advanced DMEM/F-12 (Thermo Fisher Scientific, cat. 12634028), 10 mM HEPES (Thermo Fisher Scientific, cat. 15630080), 1X GlutaMAX supplement (Thermo Fisher Scientific, cat. 35050061), 0.1 mg/mL primocin (InvivoGen, San Diego, CA, cat. ant-pm-2), 10% defined fetal bovine serum, heat inactivated (HyClone Laboratories Inc., Logan, UT, cat. SH30070.03HI), 50% L-WRN conditioned media (ATCC, cat. CRL-3276), 1.25 mM N-Acetyl-L-cysteine (Sigma-Aldrich, cat. A9165), 10 mM nicotinamide (Sigma-Aldrich, cat. N0636), 1X B-27 supplement (Thermo Fisher Scientific, cat. 17504044), 1X N-2 supplement (Thermo Fisher Scientific, cat. […]
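Also: spheroids exposed to drugs for seven days before measurement.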
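For viability, T/C in this document: percent viability relative to DMSO vehicle control wells taken as 100%.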

SMILES	viability, T/C (compound 0.0316 µM)	viability, T/C (compound 0.1 µM)	viability, T/C (compound 0.316 µM)	viability, T/C (compound 1 µM)	viability, T/C (compound 3.16 µM)	viability, T/C (compound 10 µM)	IC50	viability, T/C (compound 0.00316 µM)	viability, T/C (compound 0.01 µM)	viability, T/C (compound 0.00949 µM)	viability, T/C (compound 0.03 µM)	viability, T/C (compound 0.0949 µM)	viability, T/C (compound 0.3 µM)	viability, T/C (compound 0.949 µM)	viability, T/C (compound 3 µM)	viability, T/C (compound 0.000316 µM)	viability, T/C (compound 0.001 µM)
C#Cc1c(F)ccc2cc(O)cc(-c3ncc4c(N5CC6CCC(C5)N6)nc(OCC56CCCN5CC(F)C6)nc4c3F)c12 (stereo not drawn)	57.4% and 52.2% and 68.6%	44.5% and 37.2% and 52.2%	32.2% and 26% and 35.8%	28.6% and 24.5% and 29.1%	23.6% and 21.5% and 29.5%	21.4% and 19.2% and 26.2%	59.1 nM and 37.5 nM and 117 nM	–	–	–	–	–	–	–	–	–	–
C=CC(=O)N1CCN(c2nc(=O)n(-c3c(C)ccnc3C(C)C)c3nc(-c4c(O)cccc4F)c(F)cc23)C(C)C1 (stereo not drawn)	109% (2×) and 106%	97% and 98.6% and 100%	105% and 112% and 106%	104% and 113% and 107%	108% and 104% and 114%	107% and 113% and 112%	> 10000 nM	–	–	–	–	–	–	–	–	–	–
C=CCn1c(=O)c2cnc(Nc3ccc(N4CCN(C)CC4)cc3)nc2n1-c1cccc(C(C)(C)O)n1	110% and 99.7% and 102%	105% and 104% and 98.3%	86.9% and 73.9% and 63.5%	17.3% and 10.9% and 9.18%	–	–	583 nM and 490 nM and 421 nM	108% and 106% and 102%	96.7% and 98.2% and 99.6%	–	–	–	–	–	–	–	–
CC(=O)O[C@H]1C(=O)[C@@]2(C)[C@H]([C@H](OC(=O)c3ccccc3)[C@]3(O)C[C@H](OC(=O)[C@H](O)[C@@H](NC(=O)c4ccccc4)c4ccccc4)C(C)=C1C3(C)C)[C@]1(OC(C)=O)CO[C@@H]1C[C@@H]2O	–	–	–	–	–	–	< 9.49 nM	–	–	6.41% and 6.34% and 12.2%	4.28% and 4.53% and 8.36%	6.3% and 3.83% and 4.72%	4.7% and 3.78% and 4.01%	4.44% and 4.41% and 4.87%	4.64% and 4.24% and 4.62%	–	–
CC(C)n1c(=O)n(C)c2cnc3cc(F)c(-c4ccc(OCCCN5CCCCC5)nc4)cc3c21	106% and 110% and 109%	96.6% and 98.5% and 110%	107% and 110% and 113%	109% and 97.5% and 118%	98% and 97.2% and 102%	81.2% and 84% and 89.7%	> 10000 nM	–	–	–	–	–	–	–	–	–	–
CC1COCCN1c1cc(-c2ccnn2C)c2ccnc(-c3ccn[nH]3)c2n1 (stereo not drawn)	91.5% and 96.9% and 97.4%	75.7% and 73.8% and 55.7%	42.8% and 37.2% and 20.8%	20.7% and 22.5% and 12.6%	21.3% and 24.4% and 12.3%	25% and 30% and 17.2%	238 nM and 208 nM and 121 nM	–	–	–	–	–	–	–	–	–	–
CC1COCCN1c1cc(C2(O)CC3CCC(C2)O3)c2cnn(-c3ccn[nH]3)c2n1 (stereo not drawn)	100% and 99.2% and 87.4%	71.6% and 69.7% and 51.4%	29.2% and 34.4% and 21.1%	24.1% and 25.3% and 11.3%	23.8% and 24.9% and 15.1%	14.6% and 14.2% and 9.62%	181 nM and 194 nM and 106 nM	–	–	–	–	–	–	–	–	–	–
CC1COCCN1c1cc(C2(S(C)(=N)=O)CC2)nc(-c2ccnc3[nH]ccc23)n1 (stereo not drawn)	112% and 105% and 108%	105% and 106% and 102%	108% and 109% and 103%	100% and 95.8% and 92%	79.7% and 65.6% and 90.4%	32.3% and 23.4% and 33.7%	6520 nM and 4820 nM and 7120 nM	–	–	–	–	–	–	–	–	–	–
CCCS(=O)(=O)Nc1ccc(F)c(C(=O)c2c[nH]c3ncc(-c4ccc(Cl)cc4)cc23)c1F	111% and 107% and 105%	107% (2×) and 110%	108% (2×) and 115%	109% and 111% and 104%	116% and 110% and 112%	33% and 37.7% and 50.1%	7770 nM and 8190 nM and > 10000 nM	–	–	–	–	–	–	–	–	–	–
CC[C@@]1(O)C(=O)OCc2c1cc1n(c2=O)Cc2cc3c(CN(C)C)c(O)ccc3nc2-1	20% and 13.8% and 24.2%	17.1% and 10.5% and 14.8%	–	–	–	–	18.2 nM and 16.3 nM and 19.3 nM	97% and 95.4% and 103%	81.7% and 76.8% and 84.1%	–	–	–	–	–	–	120% and 108% and 112%	101% and 93.5% and 105%
CCc1c2c(nc3ccc(O)cc13)-c1cc3c(c(=O)n1C2)COC(=O)[C@]3(O)CC	13% (2×) and 7.69%	5.61% and 3.22% and 6.06%	2.43% and 3.16% and 3.18%	1.57% and 1.32% and 2.53%	–	–	< 3.16 nM	34.1% and 23.5% and 36.2%	12.7% and 10.6% and 14.8%	–	–	–	–	–	–	–	–
CCc1cc2c(N3CCc4c(cc(Cn5ccnc5)cc4-c4cn(C)nc4C(F)(F)F)C3=O)cc(C)nc2c(OC)n1	110% and 99.6% and 98.9%	92% and 79.7% and 87.1%	88.2% and 81.7% and 79.3%	89.3% and 74.5% and 69.2%	87% and 76.7% and 72.6%	71.6% and 58.8% and 56.6%	> 10000 nM	–	–	–	–	–	–	–	–	–	–
CCc1cc2c(N3CCc4c(cc(Cn5ccnc5)cc4-c4cn(C)nc4C(F)(F)F)C3=O)ccnc2c(OC)n1	109% and 100% and 101%	95.6% and 93% and 84.3%	98.7% and 82.7% and 86.3%	87.5% and 83.7% and 77.2%	89.3% and 71.8% and 72.8%	68% and 70.2% and 53.9%	> 10000 nM	–	–	–	–	–	–	–	–	–	–
CNCc1ccc(-c2[nH]c3cc(F)cc4c3c2CCNC4=O)cc1	103% and 105% and 99%	91.9% and 102% and 93%	97% and 98.4% and 112%	100% and 106% and 97.7%	111% and 101% and 102%	81.6% and 96.5% and 83.7%	> 10000 nM	–	–	–	–	–	–	–	–	–	–

Source: PubChem BioAssay AID1963846 (Molecular Pharmacology Branch, DTP, NCI, 2024)
